In this experiment the test system is B6C3F1 mice, B16 melanoma ip, median survival T/C. Put plainly: NCI In Vivo Anticancer Drug Screen. Data for tumor model B16 Melanoma (intraperitoneal) in B6C3F1 mice. The conditions noted are these: endpoint: median survival time, higher = longer survival. An outline of the steps: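 Readout: survival or tumor size in treated mice relative to vehicle controls (T/C). Model uses transplantable tumors grown in mice.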

[1] abbreviates: dose: 3.12 mg/kg/injection, schedule: Q01DX009 (ip), vehicle: saline.
Setting [2] is: dose: 12.5 mg/kg/injection, schedule: Q01DX009 (ip), vehicle: saline with Tween-80.
[3] abbreviates: dose: 25.0 mg/kg/injection, schedule: Q01DX009 (ip), vehicle: saline with Tween-80.
[4] abbreviates: dose: 50.0 mg/kg/injection, schedule: Q01DX009 (ip), vehicle: saline with Tween-80.
Setting [5] is: dose: 100.0 mg/kg/injection, schedule: Q01DX009 (ip), vehicle: saline with Tween-80.
Setting [6] is: dose: 200.0 mg/kg/injection, schedule: Q01DX009 (ip), vehicle: saline with Tween-80.
[7] abbreviates: dose: 12.5 mg/kg/injection, schedule: Q01DX009 (ip), vehicle: saline.
Where [8] appears, read: dose: 25.0 mg/kg/injection, schedule: Q01DX009 (ip), vehicle: saline.
[9] abbreviates: dose: 50.0 mg/kg/injection, schedule: Q01DX009 (ip), vehicle: saline.
The mark [10] stands for this setting: dose: 100.0 mg/kg/injection, schedule: Q01DX009 (ip), vehicle: saline.
The mark [11] stands for this setting: dose: 200.0 mg/kg/injection, schedule: Q01DX009 (ip), vehicle: saline.
Setting [12] is: dose: 100.0 mg/kg/injection, schedule: Q01DX009 (ip), vehicle: Klucel (hydroxypropylcellulose) (HPC).
Where [13] appears, read: dose: 200.0 mg/kg/injection, schedule: Q01DX009 (ip), vehicle: Klucel (hydroxypropylcellulose) (HPC).

Where “and” joins values, the source holds several entries; their conditions need not be identical. Equal entries are not always repeated. Toxic doses and inconclusive results are not listed.

For the molecule `CCc1nc(N)nc(N)c1-c1ccc(Cl)c(Cl)c1.[Cl][Pd][Cl]`, under setting [1], the T/C is 114 % of control.
Turning to `CC(=O)Nc1ccc(/C=N/Nc2ccc([N+](=O)[O-])cn2)cc1`, the T/C is, setting by setting: under setting [2], 89 % of control; under setting [3], 89 % of control.
For `NCC1CCC(C(=O)O)CC1` (stereo not given), the T/C reads like this: under setting [2], 102 % of control; under setting [3], 101 % of control; under setting [4], 101 % of control; under setting [5], 101 % of control; under setting [6], 94 % of control.
As for `CCCC(NC)C(CC)CN` (stereo not given), the T/C is 93 % of control under setting [7], 100 % of control under setting [8], 110 % of control under setting [9] and 105 % of control under setting [10].
Consider `Nc1nc([Se]c2nc(N)nc3c2ncn3C2OC(CO)C(O)C2O)c2ncn(C3OC(CO)C(O)C3O)c2n1` (stereo not given), for which the T/C is 108 % of control (dose: 25.0 mg/kg/injection, schedule: Q01DX009 (ip), vehicle: distilled water + Tween-80); 112 % of control (dose: 50.0 mg/kg/injection, schedule: Q01DX009 (ip), vehicle: distilled water + Tween-80); 89 % of control (dose: 100.0 mg/kg/injection, schedule: Q01DX009 (ip), vehicle: distilled water + Tween-80); 87 % of control (dose: 200.0 mg/kg/injection, schedule: Q01DX009 (ip), vehicle: distilled water + Tween-80).
In the case of `COc1ccc(CC(N)c2ccccc2)cc1` (stereo not given), the T/C under setting [9] is 99 % of control and the T/C under setting [10] is 96 % of control.
With `COC(=O)NC1C(C)OC(OC2C/C=C(/C)C3C=CC4C(OC5CC(OC6CC(OC7CC(O)C(O)C(C)O7)C(OC7CC(O)C(OC)C(C)O7)C(C)O6)C(O)C(C)O5)C(C)CC(C)C4C3(C)/C(O)=C3\C(=O)OC4(CC(C)C(CO)=CC4/C=C\2C)C3=O)CC1(C)[N+](=O)[O-]` (stereo not given), the T/C is 117 % of control and 100 % of control (dose: 6.25 mg/kg/injection, schedule: Q01DX009 (ip), vehicle: water); 108 % of control and 122 % of control (dose: 12.5 mg/kg/injection, schedule: Q01DX009 (ip), vehicle: water); 92 % of control (dose: 12.5 mg/kg/injection, schedule: Q01DX009 (sc), vehicle: water); 116 % of control (dose: 25.0 mg/kg/injection, schedule: Q01DX009 (ip), vehicle: water); 91 % of control (dose: 25.0 mg/kg/injection, schedule: Q01DX009 (sc), vehicle: water); 113 % of control (dose: 50.0 mg/kg/injection, schedule: Q01DX009 (sc), vehicle: water). The T/C (dose: 100.0 mg/kg/injection, schedule: Q01DX009 (sc), vehicle: water) was 89 % of control and the T/C (dose: 200.0 mg/kg/injection, schedule: Q01DX009 (sc), vehicle: water) was 98 % of control.
As for `CSC(SC)=C1C(=O)NC(=O)NC1=O`, the T/C reads like this: under setting [1], 111 % of control; (dose: 6.25 mg/kg/injection, schedule: Q01DX009 (ip), vehicle: saline) 101 % of control; under setting [7], 90 % of control; under setting [8], 96 % of control.
Take `CC1CN1P1(N2CC2C)=NP(N2CC2C)(N2CC2C)=NP(N2CC2C)(N2CC2C)=N1` (stereo not given): the T/C was 98 % of control (dose: 1.0 mg/kg/injection, schedule: Q01DX009 (ip), vehicle: saline); 96 % of control (dose: 1.0 mg/kg/injection, schedule: Q02DX009 (ip), vehicle: saline); 100 % of control (dose: 2.0 mg/kg/injection, schedule: Q01DX009 (ip), vehicle: saline); 102 % of control (dose: 2.0 mg/kg/injection, schedule: Q02DX009 (ip), vehicle: saline); 106 % of control (dose: 4.0 mg/kg/injection, schedule: Q01DX009 (ip), vehicle: saline); 101 % of control (dose: 4.0 mg/kg/injection, schedule: Q02DX009 (ip), vehicle: saline). Besides, the T/C is 115 % of control (dose: 8.0 mg/kg/injection, schedule: Q01DX009 (ip), vehicle: saline); 105 % of control (dose: 8.0 mg/kg/injection, schedule: Q02DX009 (ip), vehicle: saline); 117 % of control (dose: 16.0 mg/kg/injection, schedule: Q01DX009 (ip), vehicle: saline); 122 % of control (dose: 32.0 mg/kg/injection, schedule: Q02DX009 (ip), vehicle: saline); 118 % of control (dose: 64.0 mg/kg/injection, schedule: Q01DX009 (ip), vehicle: saline); 94 % of control (dose: 64.0 mg/kg/injection, schedule: Q02DX009 (ip), vehicle: saline).
With `CN1c2ccc3ccccc3c2Sc2ccc3ccccc3c21`, the T/C is, setting by setting: under setting [10], 100 % of control; under setting [11], 100 % of control; (dose: 400.0 mg/kg/injection, schedule: Q01DX009 (ip), vehicle: saline) 118 % of control.
For the molecule `CC(C)C(NC(=O)CCNC(=O)OCc1ccccc1)C(=O)O` (stereo not given), the T/C is, setting by setting: under setting [12], 100 % of control; under setting [13], 116 % of control; (dose: 400.0 mg/kg/injection, schedule: Q01DX009 (ip), vehicle: Klucel (hydroxypropylcellulose) (HPC)) 87 % of control.
In the case of `NCCCNCCSP(=O)(O)O`, the T/C under setting [2] is 108 % of control; the T/C under setting [7] is 104 % of control and 106 % of control; the T/C under setting [3] is 97 % of control; the T/C under setting [8] was 115 % of control and 97 % of control; the T/C under setting [4] is 105 % of control; the T/C under setting [9] is 109 % of control and 111 % of control. Moreover, the T/C under setting [5] is 108 % of control; the T/C under setting [10] was 109 % of control and 115 % of control; the T/C under setting [6] is 104 % of control; the T/C under setting [11] is 121 % of control and 124 % of control.
In the case of `CCC(C)C(O)C(C)C(=O)C(C)/C=C(\C)CC(C)C1OC(=O)C1C` (stereo not given), the T/C (dose: 0.25 mg/kg/injection, schedule: Q01DX009 (ip), vehicle: saline + alcohol) was 96 % of control; the T/C (dose: 0.5 mg/kg/injection, schedule: Q01DX009 (ip), vehicle: saline + alcohol) is 98 % of control and 104 % of control; the T/C (dose: 1.0 mg/kg/injection, schedule: Q01DX009 (ip), vehicle: saline + alcohol) is 99 % of control and 101 % of control; the T/C (dose: 2.0 mg/kg/injection, schedule: Q01DX009 (ip), vehicle: saline + alcohol) is 96 % of control and 98 % of control.
On to `COc1cccc2c1C(=O)c1c(O)c3c(c(O)c1C2=O)C[C@@](O)(C(C)=O)C[C@@H]3OC1CC(NC(=O)C(N)CC(C)C)C(O)C(C)O1` (stereo not given in full), for which the T/C runs as follows: (dose: 6.25 mg/kg/injection, schedule: Q01DX001 (ip), vehicle: saline) 179 % of control; (dose: 12.5 mg/kg/injection, schedule: Q01DX001 (ip), vehicle: saline) 204 % of control.
With `CC1=CC2c3cccc4[nH]cc(c34)CC2N(C)C1` (stereo not given), the T/C runs as follows: (dose: 2.5 mg/kg/injection, schedule: Q01DX009 (ip), vehicle: suspension in saline) 103 % of control; (dose: 5.0 mg/kg/injection, schedule: Q01DX009 (ip), vehicle: suspension in saline) 101 % of control; (dose: 10.0 mg/kg/injection, schedule: Q01DX009 (ip), vehicle: suspension in saline) 101 % of control; (dose: 20.0 mg/kg/injection, schedule: Q01DX009 (ip), vehicle: suspension in saline) 95 % of control.
Regarding `[F][Sn]([F])([c]1ccccc1)[c]1ccccc1`, the T/C (dose: 1.56 mg/kg/injection, schedule: Q01DX009 (ip), vehicle: Klucel (hydroxypropylcellulose) (HPC)) was 98 % of control; the T/C (dose: 3.12 mg/kg/injection, schedule: Q01DX009 (ip), vehicle: Klucel (hydroxypropylcellulose) (HPC)) was 87 % of control; the T/C (dose: 6.25 mg/kg/injection, schedule: Q01DX009 (ip), vehicle: Klucel (hydroxypropylcellulose) (HPC)) was 104 % of control; the T/C (dose: 12.5 mg/kg/injection, schedule: Q01DX009 (ip), vehicle: Klucel (hydroxypropylcellulose) (HPC)) is 103 % of control.
Regarding `CN=S(=O)(OCCCCCOS(=O)(=NC)c1ccc(C)cc1)c1ccc(C)cc1` (stereo not given), the T/C was 94 % of control under setting [2], 104 % of control under setting [3], 113 % of control under setting [4] and 123 % of control under setting [5].
For `Oc1c(Cl)cc(Cl)cc1C=NCCSc1ccc(Cl)cc1`, the T/C by setting is: (dose: 25.0 mg/kg/injection, schedule: Q01DX009 (ip), vehicle: Klucel (hydroxypropylcellulose) (HPC)) 98 % of control and 102 % of control; (dose: 50.0 mg/kg/injection, schedule: Q01DX009 (ip), vehicle: Klucel (hydroxypropylcellulose) (HPC)) 92 % of control and 102 % of control; under setting [12], 113 % of control and 93 % of control; under setting [13], 92 % of control and 103 % of control.
